Where two headings read alike, the source gives them in different places.
Columns and labels:
[1] = test system: Human breast cancer cell line ZR-75-1; assay: Caspase cascade activation assay (N-(Ac-DEVD)-N'-ethoxycarbonyl-R110 fluorogenic substrate) in ZR-75-1 cells; format: cell-based; details: ZR-75-1 cells; for EC50: 24 h incubation, sigmoidal dose-response, read-out: Caspase potency EC50 (nM) ZR-75-1; for Caspase activity (Ratio) ZR-75-1: 24 h incubation with compound, ratio of net RFU (T=3 h) of test compound to control
In short: (§1)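 Cells were exposed for 24 h at 37 °C to test compound at 0.016–1 μM final. Lysed with lysolecithin buffer (pH 7.2, DTT) containing 20 μM Ac-DEVD-R110 substrate, and fluorescence (ex 485/em 530 nm) read at 0 and 3 h at room temperature. EC50 from sigmoidal fit of net RFU ratio to control.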

[2] = test system: Human breast cancer cell line T-47D; assay: Caspase cascade activation assay (N-(Ac-DEVD)-N'-ethoxycarbonyl-R110 fluorogenic substrate) in T-47D cells; format: cell-based; details: for Caspase activity (Ratio) T-47D: 24 h incubation with compound, ratio of net RFU (T=3 h) of test compound to control; for EC50: 24 h incubation, sigmoidal dose-response, read-out: Caspase potency EC50 (nM) T-47D
In short: as §1

Row | Structure (SMILES) | EC50 ([1]; Homo sapiens, ZR-75-1, 24 h) [nM] | Caspase activity (Ratio) ZR-75-1 [1] | Caspase activity (Ratio) T-47D [2] | EC50 ([2]; Homo sapiens, T47D, 24 h) [nM] | EC50 [1] [nM] | EC50 [2] [nM]
1 | Cc1cccc(C2C(C#N)=C(N)Oc3cc(N)ccc32)c1 (centres unmarked) [Example 23, 2,7-Diamino-3-cyano-4-(3-methylphenyl)-4H-chromene] | 102 | 5.2 | 4.6 | 146 |  | 
2 | N#CC1=C(N)OC2C3=CC=NC3=CC=C2C1c1cccnc1 (centres unmarked) [Example 18, 2-Amino-3-cyano-4-(3-pyridyl)-4H-indolo[4,5-b]pyran] | 38 | 8.8 | 9.0 | 56 |  | 
3 | COc1cc(C2C(C#N)=C(N)Oc3c2ccc2ccn(C)c32)cc(Br)c1OC (centres unmarked) [Example 77, 2-Amino-4-(3-bromo-4,5-dimethoxyphenyl)-3-cyano-9-methyl-4H-pyrrolo[3,2-h]chromene] | 23.9 | 3.1 | 4.2 | 27.7 |  | 
4 | COc1ccc2c(c1)OC(N)=C(C#N)C2c1cccc(C#N)c1 (centres unmarked) [Example 5, 2-Amino-3-cyano-7-methoxy-4-(3-cyanophenyl)-4H-chromene] | 46 | 7.1 | 6.9 | 37 |  | 
5 | N#CC1=C(N)OC2C3=CC=NC3=CC=C2C1c1ccccc1 (centres unmarked) [Example 56, 2-Amino-3-cyano-4-phenyl-4H-indolo[4,5-b]pyran] | 157 | 7.7 | 8.3 | 252 |  | 
6 | COc1cc(C2C(C#N)=C(N)Oc3c2ccc2[nH]c(=O)[nH]c32)cc(Br)c1OC (centres unmarked) [Example 80, 2-Amino-3-cyano-4-(3-bromo-4,5-dimethoxy-phenyl)-8-oxo-4,7,8,9-tetrahydroimidazo[4,5-h]chromene] |  | 7.5 | 8.8 |  | 21.5 | 50.5
7 | N#CC1=C(N)OC2C3=CC=NC3=CC=C2C1c1cncc(C#N)c1 (centres unmarked) [Example 57, 2-Amino-3-cyano-4-(5-cyano-pyridin-3-yl)-4H-indolo[4,5-b]pyran] | 27.9 | 7.3 | 7.2 | 58 |  | 
8 | N#CC1=C(N)Oc2cc(N)ccc2C1c1cc(F)cc(F)c1 (centres unmarked) [Example 2O, 2-Amino-3-cyano-7-amino-4-(3,5-difluorophenyl)-4H-chromene] | 193 | 7.1 | 6.4 | 323 |  | 
9 | COc1cc(C2C(C#N)=C(N)Oc3c2ccc2[nH]cnc32)cc(Br)c1OC (centres unmarked) [Example 64, 2-Amino-3-cyano-4-(3-bromo-4,5-dimethoxy-phenyl)-4H-imidazo[4,5-h]chromene] |  | 4.8 | 8.0 |  | 13.2 | 28.8
10 | Cc1cncc(C2C3=CC=C4N=CC=C4C3OC(N)=C2C#N)c1 (centres unmarked) [Example 35, 2-Amino-3-cyano-4-(5-methyl-3-pyridyl)-4H-indolo[4,5-b]pyran] | 8 | 5.5 | 6.9 | 3 |  | 
11 | COc1cc(C2C(C#N)=C(N)Oc3c2ccc(O)c3O)cc(Br)c1OC (centres unmarked) [Example 2C, 2-Amino-3-cyano-7,8-dihydroxy-4-(3-bromo-4,5-dimethoxyphenyl)-4H-chromene] | > 10000 | 0.9 | 1.1 | > 10000 |  | 
12 | COc1ccc2c(c1)OC(N)=C(C#N)C2c1cccc([N+](=O)[O-])c1 (centres unmarked) [Example 11, 2-Amino-3-cyano-7-methoxy-4-(3-nitrophenyl)-4H-chromene] | 28 | 6.6 | 4.5 | 45 |  | 
13 | N#CC1=C(N)Oc2ccccc2C1c1ccccc1 (centres unmarked) [Example 29, 2-Amino-3-cyano-4-phenyl-4-H-chromene] |  | <2 | <2 |  | > 10000 | > 10000
14 | N#CC1=C(N)Oc2c(ccc3cc[nH]c23)C1c1cccc(C(F)(F)F)c1 (centres unmarked) [Example 54, 2-Amino-3-cyano-4-(3-trifluromethyl-phenyl)-4H-indolo[7,6-b]pyran] |  | 7.5 | 7.3 |  | 216 | 314
15 | Cc1cncc(C2C3=CC=C4C=CN=C4C3OC(N)=C2C#N)c1 (centres unmarked) [Example 55, 2-Amino-3-cyano-4-(5-methyl-pyridin-3-yl)-4H-indolo[7,6-b]pyran] | 4 | 7.2 | 7.4 | 15.3 |  | 
16 | COc1cccc(C2C(C#N)=C(N)Sc3cc(OC)ccc32)c1 (centres unmarked) [Example 70, 2-Amino-3-cyano-7-methoxy-4-(3-methoxyphenyl)-4H-thiochromene] | 45.3 | 6.6 | 9.1 | 90.7 |  | 
17 | COc1cc(C2C3=CC=C4N=CC=C4C3OC(N)=C2C#N)cc(Br)c1O (centres unmarked) [Example 50, 2-Amino-4-(3-bromo-4-hydroxy-5-methoxyphenyl)-3-cyano-4H-indolo[4,5-b]pyran] | 14.8 | 10.6 | 10.1 | 16.5 |  | 
18 | COc1cc(C2C(C#N)=C(N)Oc3cc(N)ccc32)cc(Br)c1O (centres unmarked) [Example 49, 3-Cyano-4-(3-bromo-4-hydroxy-5-methoxyphenyl)-2,7-diamino-4H-chromene] | 35.9 | 5.8 | 10.1 | 67.7 |  | 
19 | N#CC1=C(N)Oc2cc(N)ccc2C1c1cncc(Br)c1 (centres unmarked) [Example 37, 2,7-Diamino-3-cyano-4-(5-bromo-3-pyridyl)-4H-chromene] | 31 | 3.4 | 6.4 | 57 |  | 
20 | COc1cncc(C2C3=CC=C4N=CC=C4C3OC(N)=C2C#N)c1 (centres unmarked) [Example 41, 2-Amino-3-cyano-4-(5-methoxy-pyridin-3-yl)-4H-indolo[4,5-b]pyran] | 6.6 | 7.2 | 6.8 | 13.9 |  | 
21 | COc1cc(C2C3=CC=C4C=CN=C4C3OC(N)=C2C#N)cc(Br)c1O (centres unmarked) [Example 51, 2-Amino-4-(3-bromo-4-hydroxy-5-methoxyphenyl)-3-cyano-4H-indolo[7,6-b]pyran] | 18.6 | 6.7 | 11.5 | 36.8 |  | 
22 | N#CC1=C(N)Oc2cc(N)ccc2C1c1cccnc1 (centres unmarked) [Example 24, 2,7-Diamino-3-cyano-4-(3-pyridyl)-4H-chromene] | > 10000 | <2 | <2 | > 10000 |  | 
23 | COc1cc(C2C(C#N)=C(N)Oc3c2ccc2[nH]c(C)nc32)cc(Br)c1OC (centres unmarked) [Example 65, 2-Amino-3-cyano-4-(3-bromo-4,5-dimethoxy-phenyl)-8-methyl-4H-imidazo[4,5-h]-chromene] |  | 6.0 | 1.5 |  | 570 | > 1000
24 | COc1ccc2c(c1)OC(N)=C(C#N)C2c1cccc(Cl)c1 (centres unmarked) [Example 10, 2-Amino-3-cyano-7-methoxy-4-(3-chlorophenyl)-4H-chromene] | 36 | 9.0 | 6.1 | 48 |  | 
25 | COc1cc(C2C(C#N)=C(N)Oc3c2ccc2nccnc32)cc(Br)c1OC (centres unmarked) [Example 79, 2-Amino-3-cyano-4-(3-bromo-4,5-dimethoxy-phenyl)-4H-pyrazino [2,3-h]chromene] |  | 10.2 | 8.3 |  | 103 | 209
26 | N#CC1=C(N)OC2C3=CC=NC3=CC=C2C1c1cccc(F)c1 (centres unmarked) [Example 2L, 2-Amino-3-cyano-4-(3-fluorophenyl)-4H-indolo[4,5-b]pyran] | 41 | 7.4 | 4.5 | 63 |  | 

Reference: patent publication US20060035925A1, “SUBSTITUTED 4H-CHROMENES AND ANALOGS AS ACTIVATORS OF CASPASES AND INDUCERS OF APOPTOSIS AND THE USE THEREOF” (Cytovia, Inc., priority 1999, published 2006)
